Calls of active or inactive are those of the source. The calls are words filed in the database; no cut-off is given here.
Experiments:
[1] = target: cGMP-inhibited 3',5'-cyclic phosphodiesterase 3A (Homo sapiens, UniProt Q14432); experiment: Inhibition of core catalytic domain of PDE3A
[2] = target: 3',5'-cyclic-AMP phosphodiesterase 4B (Homo sapiens, UniProt Q07343); experiment: Inhibition of core catalytic domain of PDE4B
[3] = system: Cavia porcellus; experiment: Bronchodilatory activity in guinea pig assessed as reduction of histamine-induced bronchoconstriction at 0.3 mg/kg, iv relative to control; format: functional; design: scale not given: the % may be the effect or the level left
[4] = system: Cavia porcellus; experiment: Bronchodilatory activity in guinea pig assessed as reduction of histamine-induced bronchoconstriction at 0.1 mg/kg, po relative to control; format: functional
[5] = species on record: Homo sapiens; experiment: Selectivity ratio of IC50 for core catalytic domain of PDE4B to IC50 for core catalytic domain of PDE3A

Chain of 3',5'-cyclic-AMP phosphodiesterase 4B (Q07343 whole entry, the tested form may be a part): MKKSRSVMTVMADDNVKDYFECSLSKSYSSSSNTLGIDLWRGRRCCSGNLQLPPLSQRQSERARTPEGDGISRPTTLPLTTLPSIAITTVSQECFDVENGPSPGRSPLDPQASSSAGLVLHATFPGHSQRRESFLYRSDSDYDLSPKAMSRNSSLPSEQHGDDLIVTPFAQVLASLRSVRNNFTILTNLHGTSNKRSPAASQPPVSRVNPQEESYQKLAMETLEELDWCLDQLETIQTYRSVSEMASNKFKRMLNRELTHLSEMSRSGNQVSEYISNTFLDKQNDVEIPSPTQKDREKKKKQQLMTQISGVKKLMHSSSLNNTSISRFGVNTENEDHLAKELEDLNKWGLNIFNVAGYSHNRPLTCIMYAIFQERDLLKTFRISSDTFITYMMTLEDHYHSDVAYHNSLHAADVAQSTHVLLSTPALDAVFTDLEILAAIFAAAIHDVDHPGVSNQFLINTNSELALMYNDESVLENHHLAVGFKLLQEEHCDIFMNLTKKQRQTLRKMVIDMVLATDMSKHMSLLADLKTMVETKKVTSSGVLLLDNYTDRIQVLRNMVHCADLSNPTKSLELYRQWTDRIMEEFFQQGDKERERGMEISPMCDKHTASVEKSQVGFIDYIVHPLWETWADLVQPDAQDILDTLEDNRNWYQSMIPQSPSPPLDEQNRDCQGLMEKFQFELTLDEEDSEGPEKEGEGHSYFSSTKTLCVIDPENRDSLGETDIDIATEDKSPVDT
Chain of cGMP-inhibited 3',5'-cyclic phosphodiesterase 3A (Q14432 whole entry, the tested form may be a part): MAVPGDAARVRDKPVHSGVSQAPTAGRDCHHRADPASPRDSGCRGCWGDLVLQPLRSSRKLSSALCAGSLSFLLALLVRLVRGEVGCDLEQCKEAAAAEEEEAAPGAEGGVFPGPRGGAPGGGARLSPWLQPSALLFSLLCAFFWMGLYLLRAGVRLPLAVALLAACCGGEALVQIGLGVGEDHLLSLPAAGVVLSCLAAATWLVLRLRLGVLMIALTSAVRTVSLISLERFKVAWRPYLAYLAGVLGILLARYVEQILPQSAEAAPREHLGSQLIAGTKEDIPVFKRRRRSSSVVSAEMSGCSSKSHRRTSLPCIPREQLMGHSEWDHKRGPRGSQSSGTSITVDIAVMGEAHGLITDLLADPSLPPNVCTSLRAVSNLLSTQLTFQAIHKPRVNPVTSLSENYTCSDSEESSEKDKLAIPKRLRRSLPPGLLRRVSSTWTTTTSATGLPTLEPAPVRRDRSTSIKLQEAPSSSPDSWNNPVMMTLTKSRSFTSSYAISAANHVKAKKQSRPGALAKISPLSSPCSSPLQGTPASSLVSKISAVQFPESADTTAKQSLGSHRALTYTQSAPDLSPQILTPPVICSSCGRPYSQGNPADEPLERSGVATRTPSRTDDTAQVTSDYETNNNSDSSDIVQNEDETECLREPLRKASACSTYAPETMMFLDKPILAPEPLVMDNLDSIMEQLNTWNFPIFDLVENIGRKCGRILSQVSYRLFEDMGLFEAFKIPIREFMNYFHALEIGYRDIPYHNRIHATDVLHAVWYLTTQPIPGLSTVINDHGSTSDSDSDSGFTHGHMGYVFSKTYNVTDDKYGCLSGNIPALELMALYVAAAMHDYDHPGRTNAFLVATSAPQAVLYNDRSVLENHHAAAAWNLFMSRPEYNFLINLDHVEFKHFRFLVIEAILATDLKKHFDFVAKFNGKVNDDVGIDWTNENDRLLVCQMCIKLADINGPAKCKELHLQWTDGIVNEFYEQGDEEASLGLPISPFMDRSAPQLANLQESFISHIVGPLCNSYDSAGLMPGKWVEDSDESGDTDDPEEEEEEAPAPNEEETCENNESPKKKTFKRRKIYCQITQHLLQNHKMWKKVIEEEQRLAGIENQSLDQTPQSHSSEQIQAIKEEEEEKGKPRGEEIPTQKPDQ

SMILES	IC50 [1] [nM]	IC50 [2] [nM]	Activity [3] [%]	Activity [4]	Ratio IC50 [5]
CCc1cc2c(C3=NNC(=O)C3(C)C)ccc(C)n2n1	2370	160	–	–	–
CCc1cc2c(C3=NNC(=O)C3(C)C)ccc(SC)n2n1	9010	79	–	–	–
COc1ccc(C2=NNC(=O)C2(C)C)c2[nH]c(C(F)(F)F)nc12	14100	200	–	–	–
COc1ccc(C2=NNC(=O)CC2C)c2cc(C(F)(F)F)nn12 (single isomer, unassigned; (-))	360	42	–	–	–
COc1ccc(C2=NNC(=O)C2(C)C)c2cc(C(F)(F)F)oc12	1100	360	–	–	–
COc1ccc(C2=NNC(=O)C2(C)C)c2sc(C(F)(F)F)nc12	540	63	96	inactive	–
COc1ccc(C2=NNC(=O)C2(C)C)n2cc(C(F)(F)F)nc12	140	150	100	>70%	–
CCc1cc2c(C3=NNC(=O)C3(C)C)ccc(CO)n2n1	1590	35	–	–	–
CCc1cc2c(C3=NNC(=O)CC3C)ccc(OC)n2n1 (racemic)	11300	470	–	–	–
CCc1cc2c(C3=NNC(=O)C3(C)C)ccc(C(C)=O)n2n1	2500	7.5	–	–	–
CCc1cc2c(C3=NNC(=O)C3(C)C)ccc(OC)n2n1	9210	410	–	–	–
COc1ccc(C2=NNC(=O)C2(C)C)c2cc(C(F)(F)F)nn12	4130	110	–	–	–
CCc1cc2c(C3=NNC(=O)C3(C)C)ccc(C(C)O)n2n1 (racemic)	1630	3.4	–	–	–
COc1ccc(C2=NNC(=O)C2(C)C)c2ccnn12	10800	2930	–	–	–
COc1ccc(C2=NNC(=O)C2(C)C)c2cc(C(F)(F)F)sc12	5360	690	–	–	–
CCc1cc2c(C3=NNC(=O)C3(C)C)ccc(NC)n2n1	75600	15	–	–	5000
COc1ccc(C2=NNC(=O)C2(C)C)c2cc(C3CC3)nn12	6170	150	–	–	–
COc1ccc(C2=NNC(=O)C2(C)C)c2cc(C(F)F)nn12	3280	50	–	–	–
CCc1cc2c(C3=NNC(=O)C3(C)C)ccc(CC)n2n1	2000	17	–	–	–
CCc1ccc2c(C3=NNC(=O)C3(C)C)ccc(OC)c2n1	10100	2580	–	–	–
COc1ccc(C2=NNC(=O)C2(C)C)c2ccc(C(F)(F)F)nc12	6650	1070	–	–	–
